{"source": "patent US20030094251A1", "about": "“Enhancing laccase activity using pro-oxidants and pro-degradants” (priority 2001, published 2003)", "key": {"laccase": {"test_system": "laccase", "assay": "Chicago Blue assay: mediator-enhanced laccase-catalyzed bleaching of Chicago Blue in solution", "assay_type": "biochemical, Aspergillus", "conditions": "decrease in absorbance of Chicago Blue at 610 nm after 3 min, mediator (0.1 umole/ml); for ΔmA610 (3 min) at pH 5.5: pH 5.5, laccase; for ΔmA610 (3 min) at pH 7.0: pH 7.0, laccase", "procedure": "In this example, the pro-oxidants and pro-degradants were tested individually as mediators to enhance laccase-catalyzed bleaching of Chicago Blue in solution. The Chicago Blue Dye, also known as Direct Blue 1 or DB1, is a commonly used assay for the oxidative efficiency of laccase. The Chicago Blue Dye is fully described by Schneider et al. in U.S. Pat. No. 5,885,304, which is hereby incorporated by reference.\nEach of the compounds (i.e., potential mediators) was dissolved in water, or in ethanol if the potential mediator was not water soluble, and then mixed with a phosphate buffer and a Chicago Blue solution. A solution of a laccase was added to make up 1 ml of the final solution, containing […] mediator, 20 mM buffer at pH 5.5 or 7.0, 0.1-1% laccase (v/v) and Chicago Blue solution, with absorbance at A610 nm between 0.6 to 0.8. The change in the absorbance at A610 nm was measured immediately using a UV-VIS spectrophotometer (UV-1201, Shimadzu Scientific Instruments) after the enzyme was added. The decrease in absorbance was recorded at 30-second intervals for 5 minutes and was used to estimate the efficiency of the mediator."}, "laccase (NS51003)": {"test_system": "laccase (NS51003)", "assay": "Pulp bleaching with laccase and mediators, delignification measured as change in Kappa number (TAPPI T236 cm-85)", "set-up": "species or system Aspergillus", "procedure": "Delignification of the pulp was measured as the change in Kappa number according to TAPPI method T236 cm-85. Briefly, a known mass of paper pulp (containing lignin) was reacted with an excess of potassium permanganate in acid solution for a specified period of time to oxidize the lignin. After the reaction, the residual permanganate was determined by titration. The Kappa number was defined as the volume (ml) of 0.1N potassium permanganate consumed by 1 g of moisture-free pulp in 0.5N sulfuric acid after a ten-minute reaction time at 25° C. under conditions such that one-half of the permanganate remains unreacted. A linear relationship with the lignin content of the pulp and the measurement of the Kappa number has been done on samples as low as 300 mg of pulp.\nA softwood Kraft pulp, Kappa number 31.0, was treated with a laccase (NS51003) under the following conditions:\nThe dried pulp was added to 80 ml of 50 mM phosphate, pH 5.5, and disintegrated in a blender. The pulp was then transferred to a 500-ml conical flask and the blender was washed with 20 ml of the same buffer. The washed buffer and the pulp were combined. The mediator was added at 1-4% (w/w, based on the dry pulp) followed by the addition of the laccase. The pH of the pulp mixture was adjusted to 5.5 if needed. […]\nThe delignification of the pulp was measured as the change in the Kappa number according to TAPPI method T236 cm-85."}}, "data": [{"smiles": "O=C(O)c1cccnc1", "note": "[Nicotinic acid, nicotinic acid]", "values": [{"measurement": "ΔmA610 (3 min) at pH 5.5", "setting": "laccase", "value": 0}, {"measurement": "ΔmA610 (3 min) at pH 7.0", "setting": "laccase", "value": 0}]}, {"smiles": "O=C1O[C@H]([C@@H](O)CO)C(O)=C1O", "note": "[Ascorbic acid, ascorbic acid]", "values": [{"measurement": "ΔmA610 (3 min) at pH 5.5", "setting": "laccase", "value": 6}, {"measurement": "ΔmA610 (3 min) at pH 7.0", "setting": "laccase", "value": 2}]}, {"smiles": "On1nnc2ccccc21", "note": "[HBT, 1-hydroxybenzotriazole, reference compound]", "values": [{"measurement": "Kappa number reduction (in words)", "setting": "laccase (NS51003); 0.1 ml of the 51003 laccase with the mediator", "value": "modest Kappa number reduction"}]}, {"smiles": "O=C(O)c1ccccc1O", "note": "[Salicylic acid, salicylic acid]", "values": [{"measurement": "ΔmA610 (3 min) at pH 5.5", "setting": "laccase", "value": 11}]}, {"smiles": "NC(N)=O", "note": "[Urea, urea]", "values": [{"measurement": "ΔmA610 (3 min) at pH 5.5", "setting": "laccase", "value": 1}, {"measurement": "ΔmA610 (3 min) at pH 7.0", "setting": "laccase", "value": 0}, {"measurement": "activity in enhancing bleaching (in words)", "setting": "laccase (NS51003); pulp bleaching with laccase, Examples 2-6", "value": "barely active"}]}]}
